One test has as its system INS1. The test can be described thus: INS-1E survival protection against cytokine death – cell-based, luminescence, retest, dose response (AID 449756).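 Note: cell death triggered by IL-1 beta plus TNF-alpha plus IFN-gamma mixture; protective hits raise ATP signal compared with cytokine alone wells.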 The format is functional. As to conditions: Rattus norvegicus.
For test [1], the target named is T1, RNA-binding protein pos-1 (Caenorhabditis elegans, UniProt G5EF15).
T1 sequence (G5EF15 whole entry): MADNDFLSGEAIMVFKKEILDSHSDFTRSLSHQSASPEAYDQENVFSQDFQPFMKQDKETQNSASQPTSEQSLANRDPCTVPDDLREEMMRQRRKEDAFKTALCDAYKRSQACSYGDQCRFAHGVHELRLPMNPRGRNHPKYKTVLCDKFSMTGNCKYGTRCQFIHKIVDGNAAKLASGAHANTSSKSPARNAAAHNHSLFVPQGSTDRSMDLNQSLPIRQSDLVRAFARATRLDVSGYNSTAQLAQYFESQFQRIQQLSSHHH
As to the kind of experiment: disruptors of C. elegans POS-1 RNA interaction – biochemical, fluorescence polarization, dose response (AID 1964).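 Note: purified POS-1 fused to maltose binding protein made in E. coli; potency of compounds blocking POS-1 binding to fluorescent RNA.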 For orientation: Fluorescence polarisation rises when a labelled molecule tumbles more slowly, as on binding a larger partner.

In test [2] the target is T2, Zinc finger protein mex-5 (Caenorhabditis elegans, UniProt Q9XUB2).
T2 sequence (Q9XUB2 whole entry): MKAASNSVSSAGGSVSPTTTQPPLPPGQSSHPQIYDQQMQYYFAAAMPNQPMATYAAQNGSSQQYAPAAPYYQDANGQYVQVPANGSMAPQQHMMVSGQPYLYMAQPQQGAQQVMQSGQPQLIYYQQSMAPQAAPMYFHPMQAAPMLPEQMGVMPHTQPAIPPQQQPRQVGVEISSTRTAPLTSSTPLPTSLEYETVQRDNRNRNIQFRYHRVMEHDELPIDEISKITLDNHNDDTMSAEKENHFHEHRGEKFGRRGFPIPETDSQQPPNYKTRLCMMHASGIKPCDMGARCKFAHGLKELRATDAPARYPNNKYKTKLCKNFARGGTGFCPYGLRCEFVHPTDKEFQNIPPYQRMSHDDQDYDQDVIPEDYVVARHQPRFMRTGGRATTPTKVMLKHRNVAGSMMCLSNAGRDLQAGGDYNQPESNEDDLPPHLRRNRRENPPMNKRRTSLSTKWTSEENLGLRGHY
As to the kind of experiment: potency of MEX-5 RNA-binding blockers – biochemical, C. elegans, fluorescence polarization, dose response (AID 1960).

Test [3] addresses T3, Replicative DNA helicase DnaB (Mycobacterium tuberculosis, UniProt P9WMR3).
T3 sequence (P9WMR3 whole entry): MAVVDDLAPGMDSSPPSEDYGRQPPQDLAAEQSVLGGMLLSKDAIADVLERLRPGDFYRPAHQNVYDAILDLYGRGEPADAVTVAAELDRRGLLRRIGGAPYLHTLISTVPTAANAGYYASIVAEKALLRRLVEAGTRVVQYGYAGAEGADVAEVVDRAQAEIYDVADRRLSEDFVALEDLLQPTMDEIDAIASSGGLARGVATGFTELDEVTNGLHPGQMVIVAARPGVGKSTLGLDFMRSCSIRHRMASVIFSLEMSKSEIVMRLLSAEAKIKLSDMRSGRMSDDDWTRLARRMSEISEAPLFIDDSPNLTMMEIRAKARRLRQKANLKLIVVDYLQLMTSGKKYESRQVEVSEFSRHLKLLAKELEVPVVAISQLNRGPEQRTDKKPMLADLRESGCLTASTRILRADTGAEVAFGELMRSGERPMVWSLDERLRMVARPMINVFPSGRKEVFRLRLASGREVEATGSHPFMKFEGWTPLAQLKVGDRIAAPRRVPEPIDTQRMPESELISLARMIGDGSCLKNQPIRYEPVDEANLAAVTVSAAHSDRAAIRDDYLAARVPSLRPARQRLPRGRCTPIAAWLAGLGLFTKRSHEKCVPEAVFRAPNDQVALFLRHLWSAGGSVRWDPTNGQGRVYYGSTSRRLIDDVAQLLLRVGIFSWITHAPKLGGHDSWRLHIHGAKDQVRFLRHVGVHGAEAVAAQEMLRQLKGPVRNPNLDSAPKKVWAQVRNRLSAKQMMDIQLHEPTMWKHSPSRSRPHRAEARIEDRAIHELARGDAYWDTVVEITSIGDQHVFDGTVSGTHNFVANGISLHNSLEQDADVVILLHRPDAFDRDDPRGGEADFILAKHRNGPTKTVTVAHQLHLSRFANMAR
The test can be described thus: DnaB intein splicing inhibitors, dose response, biochemical, cell-free fluorescence (AID 449749). The format is functional.

A further test concerns the target T4, Protein RecA (Mycobacterium tuberculosis, UniProt P9WHJ3).
T4 sequence (P9WHJ3 whole entry): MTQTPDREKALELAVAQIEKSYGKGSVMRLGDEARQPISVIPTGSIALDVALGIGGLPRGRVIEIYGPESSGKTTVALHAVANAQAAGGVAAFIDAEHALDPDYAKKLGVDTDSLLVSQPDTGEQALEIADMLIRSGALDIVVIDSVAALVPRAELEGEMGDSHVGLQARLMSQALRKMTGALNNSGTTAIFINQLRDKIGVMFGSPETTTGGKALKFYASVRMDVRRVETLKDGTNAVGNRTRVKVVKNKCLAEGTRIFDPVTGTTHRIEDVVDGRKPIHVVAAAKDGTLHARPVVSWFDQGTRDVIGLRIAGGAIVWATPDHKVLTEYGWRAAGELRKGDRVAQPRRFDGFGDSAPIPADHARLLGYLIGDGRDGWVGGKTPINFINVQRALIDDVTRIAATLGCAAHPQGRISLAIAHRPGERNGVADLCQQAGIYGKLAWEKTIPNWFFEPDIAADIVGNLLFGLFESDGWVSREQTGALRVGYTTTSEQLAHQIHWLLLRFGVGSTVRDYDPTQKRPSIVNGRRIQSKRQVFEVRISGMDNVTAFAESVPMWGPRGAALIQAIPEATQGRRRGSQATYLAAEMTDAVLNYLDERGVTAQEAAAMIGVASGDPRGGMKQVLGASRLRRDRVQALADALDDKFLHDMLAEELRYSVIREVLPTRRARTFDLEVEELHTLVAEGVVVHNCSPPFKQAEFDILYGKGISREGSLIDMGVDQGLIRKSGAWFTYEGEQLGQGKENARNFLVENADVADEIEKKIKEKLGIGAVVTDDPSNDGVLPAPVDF
As to the kind of experiment: Fluorescence Cell-Free Homogeneous Dose Retest to Identify Inhibitors of RecA-Intein Splicing Activity. [Related pubchem assays (depositor defined):AID2097, AID2223, AID489010, AID492950]. The class given is functional.

Test [4] can be described thus: luciferase reporter signal suppression in cells – H4 neuroglioma cells, luminescence, dose response (AID 1990). The format is functional, cell-based. Background: Reporter assays use an easily measured gene product as a stand-in for the process of interest.
Test [5] can be described thus: Luminescence Cell-Based Dose Response HTS to Identify Inhibitors of 5'UTR Stem-Loop Driven Prion Protein mRNA Translation in H4 Neuroglioblastoma Cells. [Related pubchem assays: 1827 (Project Summary), 1813 (Primary HTS)]. The format is functional.
The nature of test [6]: alpha-synuclein stem-loop luciferase translation blockers – H4 neuroglioma cells, luminescence, confirmation (AID 1988). The class given is functional, cell-based.
Test [7] can be described thus: Luminescence Cell-Based Dose Retest to Confirm Inhibitors of Cancer Stem Cells. [Related pubchem assays (depositor defined):AID2717, AID2721]. The class given is functional. As to conditions: Homo sapiens.
For a further test, the target named is Cytochrome P450 2D6 (Homo sapiens, UniProt P10635).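 Note: CYP2D6 member of a cytochrome P450 panel assay.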
Another test in a line: cells. The class given is functional.
Test [8] has as its target T5, Corticotropin-releasing factor receptor 2/Corticotropin-releasing factor-binding protein (Homo sapiens, UniProt P24387+Q13324).
T5 sequence (Q13324 whole entry): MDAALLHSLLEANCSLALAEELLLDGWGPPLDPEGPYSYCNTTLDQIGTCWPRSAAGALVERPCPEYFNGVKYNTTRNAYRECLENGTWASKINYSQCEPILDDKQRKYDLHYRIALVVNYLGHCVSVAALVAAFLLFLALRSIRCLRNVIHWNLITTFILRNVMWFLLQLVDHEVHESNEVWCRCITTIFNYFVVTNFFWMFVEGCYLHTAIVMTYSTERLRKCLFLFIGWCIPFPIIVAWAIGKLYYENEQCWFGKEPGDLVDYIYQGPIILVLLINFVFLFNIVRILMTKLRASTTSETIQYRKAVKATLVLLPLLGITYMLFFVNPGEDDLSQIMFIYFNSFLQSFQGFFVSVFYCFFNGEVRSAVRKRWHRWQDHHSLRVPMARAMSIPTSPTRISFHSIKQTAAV
T5 sequence (P24387 whole entry): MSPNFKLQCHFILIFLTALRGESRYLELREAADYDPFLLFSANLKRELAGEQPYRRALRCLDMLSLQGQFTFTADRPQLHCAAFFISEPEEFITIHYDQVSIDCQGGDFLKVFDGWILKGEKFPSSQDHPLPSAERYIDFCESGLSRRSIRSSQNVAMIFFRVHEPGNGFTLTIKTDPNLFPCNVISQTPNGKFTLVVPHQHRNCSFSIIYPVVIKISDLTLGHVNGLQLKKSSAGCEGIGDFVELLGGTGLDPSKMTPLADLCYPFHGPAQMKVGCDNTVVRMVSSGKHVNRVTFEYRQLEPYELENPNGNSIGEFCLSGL
The test can be described thus: activators of CRF receptor 2 with binding protein – uHTS hits, confirmation (AID 602473). The class given is functional. The conditions noted are these: read-out: EC50_Mean.

Active and inactive are the calls of the source. Cut-off read from the data, not from the text of the source, for most assays here: actives have a measured EC50 and inactives only a lower limit.

Chain of Cytochrome P450 2D6 (P10635 whole entry): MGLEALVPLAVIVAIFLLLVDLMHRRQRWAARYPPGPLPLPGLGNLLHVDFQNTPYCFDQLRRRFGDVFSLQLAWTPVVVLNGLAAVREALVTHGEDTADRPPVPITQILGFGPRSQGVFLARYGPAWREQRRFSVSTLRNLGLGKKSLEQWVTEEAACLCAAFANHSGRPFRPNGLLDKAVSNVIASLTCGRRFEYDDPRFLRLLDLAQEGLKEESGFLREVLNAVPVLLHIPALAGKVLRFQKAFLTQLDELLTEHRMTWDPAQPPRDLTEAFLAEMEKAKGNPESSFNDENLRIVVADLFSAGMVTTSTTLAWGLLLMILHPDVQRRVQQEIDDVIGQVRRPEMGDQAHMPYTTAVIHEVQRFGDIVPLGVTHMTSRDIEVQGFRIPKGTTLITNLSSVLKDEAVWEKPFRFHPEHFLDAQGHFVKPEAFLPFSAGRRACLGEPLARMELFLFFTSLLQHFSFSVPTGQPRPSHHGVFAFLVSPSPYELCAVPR

Usually AC50 stands for the concentration at which the activity in the assay is half-maximal. Take `Cc1ccc(-c2nn(-c3ccccc3)cc2/C=N/NC(=O)c2ccc3c(c2)OCO3)cc1`: in the test with INS1, the AC50 was 5.54 µM (active).

As for `CN1C(=O)C(=Cc2cc3ccccc3nc2O)C(=O)N(C)C1=O`, the EC50 in [1] and in test [2] was > 300 µM (not active) throughout.

As to `COc1ccc(Nc2nc3ccccc3nc2NS(=O)(=O)c2cccs2)c(OC)c1`, the EC50 in [1] is 5.66 µM (active); in [2], 49.7 µM (inconclusive).

For the molecule `CCOc1cc(/C=C(\C#N)c2nc3ccccc3[nH]2)ccc1OC(C)C(=O)O` (stereo not drawn), the EC50 was 78.5 µM (active) in [1] and 50.5 µM (active) in test [2].

`O=C(CN1CCC(n2nnc3cc(F)ccc32)CC1)NCCc1ccccc1`: the EC50 in [1] and in test [2] was > 300 µM (not active) throughout.

In the case of `COc1cccc(N2C(=O)NC(=O)/C(=C/c3ccc4c(c3)Cc3ccccc3-4)C2=O)c1`, the EC50 in test [1] and in test [2] was > 300 µM (not active) each time.

Consider `COc1cc(C(C(=O)NC2CCCCC2)N(CCN2CCOCC2)C(=O)C2COc3ccccc3O2)cc(OC)c1OC` (stereo not drawn), for which the AC50 in [3] is > 380 µM (inactive). Also, the EC50 at Protein RecA is > 380 µM (inactive).

Regarding `CCOC(=O)c1c(CCl)nc2ccccc2c1-c1ccccc1`, the AC50 in test [3] was 9.56 µM (active). The EC50 on Protein RecA was 12.6 µM (active).

As for `COC(=O)c1ccccc1NC(=O)C(C)n1nc(C)c2c(C)n(-c3ccccc3)nc2c1=O` (stereo not drawn), the EC50 was 25.5 µM (active) in test [4], 20.1 µM (active) in test [5], 22.9 µM (active) in test [6] and > 380 µM (inactive) at Protein RecA. For the same molecule, the AC50 in test [3] is 208 µM (active).

Turning to `CCCc1c(-c2ccc(O)cc2)nn(-c2ccc(O)cc2)c1-c1ccc(O)cc1` [PROPYLPYRAZOLETRIOL], the AC50 is 3.78 µM (active) in [7], 2.92 µM (active) in [3] and 12.6 µM (inconclusive) at Cytochrome P450 2D6. Moreover, the EC50 on Protein RecA was 4.88 µM (active).

What is called IC50 is the midpoint of a concentration-inhibition curve. Regarding `COc1ccc(C(=O)C2CCCN(C(=O)c3ccc(CSC)o3)C2)cc1F` (stereo not drawn), in “cells”, the 50% inhibitory concentration (IC50) was 41.5 µM (active).

As for `CC1(C)CC(=O)C2=C(C1)OC(N)=C(C#N)C21C(=O)N(CN2CCOCC2)c2ccccc21` (stereo not drawn), the EC50 in test [1] and in test [2] was > 300 µM (not active) in each case.

Take `Cc1ccc(/C=N/NC(=O)c2ccncc2)s1`: in “cells”, the IC50 is 0.96 µM (active).

Take `Cc1ccc(NC(=O)C(=O)NNC(=O)c2ccccc2C)cc1Cl`: the IC50 in the test “cells” was 6.8 µM (active).

Take `CCC(C)(C)NC(=O)C(c1cccn1C)N(C(=O)Cn1nnc2ccccc21)c1ccc(OC)cc1` (stereo not drawn): the EC50 in [1] and in [2] was > 300 µM (not active) in each case.

For `COc1ccc(OCCOC(=O)c2cccs2)cc1`, the concentration for half-maximal inhibition (IC50) in the test “cells” is 23.5 µM (active).

Regarding `Cc1cccc(-n2c(C)cc(/C=N/n3cnnc3)c2C)c1`, the AC50 with INS1 was 14.1 µM (active).

For the molecule `CCOc1ccc(N2C(=O)NC(=O)/C(=C/Nc3ccc(N(CC)CC)cc3)C2=O)cc1`, the figures for the EC50 in test [1], in test [2] and in test [8] were 151 µM (active), 106 µM (active) and 10.4 µM (active), respectively.

Regarding `C=CCOc1cccc(C2C(C(=O)c3ccc(C)o3)=C(O)C(=O)N2c2nnc(C)s2)c1` (stereo not drawn), the EC50 in [1] was > 300 µM (not active); in test [2], 210 µM (active).

Regarding `N#Cc1cc(NC2CCCC2)c([N+](=O)[O-])cc1C#N`, the EC50 is > 300 µM (not active) in test [1] and 41.8 µM (active) in test [2].

On to `CCOC(=O)COc1ccc2c(c1)C(=O)CC(C)(c1cccnc1)O2` (stereo not drawn), for which, in the test “cells”, the IC50 was 11.2 µM (active).

As to `CC1CCCC(/C=N/c2ccc(C(=O)O)c(O)c2)=C1O` (stereo not drawn), the IC50 in “cells” was 0.2 µM (active).

As to `Cc1n[nH]c2c1C(c1cccs1)C(C#N)=C(N)O2` (stereo not drawn), the AC50 in [3] is 24.7 µM (active). The EC50 on Protein RecA is 4.74 µM (active).

For the molecule `O=C1/C(=C/c2cccc([N+](=O)[O-])c2)CCc2ccccc21`, the AC50 in test [3] was 8.57 µM (active). In addition, the EC50 at Protein RecA was 13.3 µM (active).

Regarding `CC1CCCCC1NC(=O)NC(=O)CCl` (stereo not drawn), the AC50 in test [3] was 22.5 µM (active). Moreover, on Protein RecA, the EC50 was 12.3 µM (active).

Values taken from ChEMBL document CHEMBL1201862, “PubChem BioAssay data set” (2004).
